Holding throughout (assay): inhibition of tumour cell growth, NCI panel, 48 h
Test [1] concerns SNB-75 CNS.
Test [2] relates to UACC-257 melanoma.
Test [3] concerns NCI/ADR-RES ovarian.
Test [4] concerns HOP-62 NSCLC.
For test [5], the system named is SK-MEL-28 melanoma.
Test [6] deals with BT-549 breast.
In test [7] the test system is MDA-MB-231 breast.
Test [8] deals with HT29 colon.
In test [9] the test system is SR leukemia.
Test [10] deals with M14 melanoma.

Our source for the GI50 and TGI values is PubChem BioAssay (NCI).

SMILES strings stand for the structures.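 Where inhibition never reached the appropriate level, the endpoint shown equals the highest concentration tested. Otherwise, values were interpolated linearly from a five-concentration, 48-hour dose response in 96-well plates. The concentration for 50% growth inhibition is given as GI50. TGI: total growth inhibition.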

For the molecule `CC(C)OCc1cc(CN2CCN(c3cccc(Cl)c3)CC2)c(O)c2ncccc12`, the GI50 is 1.19 µM in test [1]; 1.56 µM in test [2]; 0.203 µM in test [3]; 0.431 µM in test [4]; 0.997 µM in test [5]; 3.26 µM in test [6]. Further, the GI50 is 0.611 µM in test [7], 6.76 µM in test [8] and 0.403 µM in test [9]. Besides, the TGI in test [1] turned out to be 14.4 µM; in [2] it was 9.58 µM; in test [3], 10.6 µM; in test [4] it was 6.54 µM; in test [5], 14.5 µM; in [6] it was 19.8 µM. In addition, the results for the TGI in test [7], in test [8] and in [9] were 14.2 µM, 21.8 µM and 10.2 µM, respectively.

`O=[N+]([O-])/C=C/c1cc2ccc3ccccc3c2[nH]1`: the TGI came out at 3.87 µM in test [1]; 6.45 µM in test [2]; 6.87 µM in test [3]; 4.39 µM in test [4]; 3.33 µM in [10]; 4.79 µM in [5]. Further, the TGI in test [6] worked out at 4.44 µM; in test [7], 3.2 µM; in test [8], 5.86 µM.

On to `COc1cc2c3c(n(CCCN4CCCNCC4)c(=O)c2cc1OC)-c1cc2c(cc1C3=O)OCO2`, for which the GI50 in test [1] was 0.754 µM; in test [2], 5.85 µM; in test [3], 0.493 µM; in [4] it was 0.558 µM; in [10], 0.521 µM; in [5], 2.49 µM. Besides, the GI50 in test [6] was 2.2 µM; in [7] it was 1.06 µM; in test [8] it was 1.15 µM. The TGI in test [1] came out at 7.66 µM; in [2], 15.9 µM; in test [3] it was 6.69 µM; in test [4], 4.46 µM; in [10], 7.12 µM; in test [5], 14.1 µM. The TGI in test [6] amounted to 11.5 µM; in [7], 3.5 µM; in [8], 17.6 µM.

`Cc1cc(C(O)(c2ccc(Nc3ccccc3)cc2)c2ccc(Nc3ccc(S(=O)(=O)O)cc3)cc2)ccc1N` (centres undefined): the GI50 in [1] was 1.29 µM; in [2], 1.35 µM; in test [3] it was 1.83 µM; in test [4], 2.27 µM; in test [10], 1.2 µM; in test [6] it was 1.84 µM. The GI50 in test [8] was 0.516 µM; in test [9], 0.713 µM. For the same molecule, the TGI is 30.9 µM in [1]; 3.43 µM in [2]; 4.58 µM in [3]; 4.65 µM in [4]; 2.98 µM in test [10]; 5.61 µM in test [6]. In addition, the values for the TGI in [8] and in [9] were 2.34 µM and greater than 100 µM, respectively.

As to `CCCCCCc1cc2cc(-c3csc(/C=C/c4ccccc4)n3)c(=O)oc2cc1O`, the GI50 was 11.5 µM in [1]; 40.4 µM in test [2]; 4.53 µM in test [3]; 7.16 µM in [4]; 10.6 µM in [5]; 35.6 µM in test [6]. In addition, the GI50 in test [7] was 8.82 µM; in test [8], greater than 100 µM; in [9] it was 2.88 µM. The TGI in test [1] is 26.5 µM; in [2], greater than 100 µM; in [3] it was 17.7 µM; in test [4], 21.4 µM; in test [5], 24.9 µM; in test [6], greater than 100 µM. Moreover, the TGI in [7] was 31.1 µM; in test [8], greater than 100 µM; in [9] it was 9.69 µM.

For `CCC(C)(C)[C@H](NC(=O)[C@H]1CCCCN1C)C(=O)N(C)[C@H](C[C@@H](OC(C)=O)c1nc(C(=O)N[C@@H](Cc2ccccc2)C[C@H](C)C(=O)O)cs1)C(C)C`, the GI50 in test [1] is less than 0.00167 µM; in test [2], greater than 16.7 µM; in test [3] it was 0.00342 µM; in [4], less than 0.00167 µM; in [6], less than 0.00167 µM; in test [7] it was less than 0.00167 µM. Moreover, the GI50 in [8] and in test [9] was less than 0.00167 µM each time. Also, the TGI in test [1] was greater than 16.7 µM; in test [2], greater than 16.7 µM; in test [3] it was greater than 16.7 µM; in test [4] it was greater than 16.7 µM; in test [6], 0.0136 µM; in test [8], greater than 16.7 µM. This molecule also returned a TGI in [9] greater than 16.7 µM.

Turning to `CS(=N)(=O)CCC(N)P(=O)(O)O` (centres undefined), the TGI in test [2], in test [3], in [4], in [10], in [5] and in [6] was greater than 100 µM throughout. Besides, the TGI in test [7], in [8] and in test [9] was greater than 100 µM each time.

`Brc1ccc(Nc2nc3ccccc3nc2Nc2ccc(Br)cc2)cc1`: the GI50 in [1] was 1.9 µM; in test [2], 2.01 µM; in test [3], 1.62 µM; in test [4], 1.43 µM; in test [5], 2.18 µM; in test [6], 2.44 µM. For the same molecule, the GI50 in test [7] is 1.46 µM; in test [8], 0.404 µM; in test [9] it was 0.715 µM. In addition, the TGI in test [1] is 7.04 µM; in test [2] it was 5.9 µM; in test [3], 10.5 µM; in test [4], 4.12 µM; in [5], 6.87 µM; in test [6] it was 7.98 µM. In addition, the values for the TGI in [7], in test [8] and in test [9] were 3.01 µM, 10.9 µM and 5.52 µM, respectively.

With `N#Cc1c2ccccc2c2nnc3ccc(C(F)(F)F)cc3n12`, the GI50 in [1] was 47.6 µM; in test [2] it was 21.2 µM; in test [3], 72.7 µM; in test [4], greater than 100 µM; in test [5], greater than 100 µM; in test [6], 21 µM. Further, the figures for the GI50 in test [7], in test [8] and in test [9] were 88.1 µM, 61.8 µM and 0.214 µM, respectively. Further, the TGI is greater than 100 µM in test [1]; 76.3 µM in test [2]; greater than 100 µM in [3]; greater than 100 µM in [4]; greater than 100 µM in test [5]; 44.6 µM in test [6]. For the same molecule, the TGI in test [7], in [8] and in test [9] was greater than 100 µM each time.
